# Data taken from patent US5182280A, “Derivatives of benzimidazole and their use as antihistamines” (Laboratorios Del Dr. Esteve, S. A., priority 1990, dated 1993).
# Assays:
# [1] = system: death induced by compound 48/80; test: "In vivo" antihistaminic activity: protection from death induced by 48/80 in the rat; details: ip, i.p. 60 min before 48/80 (0.5 mg/kg, i.v.), survival 4 h after, read-out: ED-50, protection from death induced by 48/80
# Description: The antihistaminic activity was studied by determining the protection in the face of the mortality induced by the product 48/80 in the rat. This test was realized in accordance with the technique described by C. J. E. Niemegeers and cols. (Arch, int. Pharmacodyn. 234, 164-176 (1978).
# The products according to the present invention are administered i.p. to rats. After 60 minutes the compound 48/80 is administered (0.5 mg/kg, i.v.). The protective activity is defined as the survival of the rats 4 hours after the i.v. injection of 48/80.
# The activity of the products at several doses in order to determine the dose capable of protecting 50% of the animals (ED-50) was studied.
# [2] = Sedative effect: Irwin test (passivity and ataxia); format: in vivo; details: rats, i.p., 1, 2 and 3 hours after treatment
# Description: Pas.: Passivity, sedation, prostration. Quantitative evaluation between 0 and 3. They were performed 1, 2 and 3 hours after the treatment.
# Atax.: Ataxia, the alterations in coordination in locomotion were evaluated. They were evaluated between 0 and 3. They were performed 1, 2 and 3 hours after the treatment.
# [3] = system: sleep time induced by pentobarbital; test: Sedative effect: potentiation of the sleep time induced by pentobarbital; details: for Potentiation of sleep time (in words): orally; for Potentiation of sleep time: 1 h before sodium pentobarbital (35 mg/kg, s.c.)
# Description: Study of the potentiation of the sleep time due to pentobarbital was carried out by following the method described by L. E. Allen and cols. […] The products studied were administered orally. […] The sleep time was compared with a group of control animals, treated only with sodium pentobarbital.
Compound,ED50 [1],Atax. (ataxia; score 0 to 3) ([2]; 80 mg/kg),"Pas. (passivity, sedation, prostration; score 0 to 3) ([2]; 80 mg/kg)",further results
"CCOCCn1c(CN2CCN(CCCCn3cc(Br)cn3)CC2)nc2ccccc21 [Example 1, 1-(2-Ethoxyethyl)-2-4-[4--(4-bromopyrazol-1-yl)butyl]piperazin-1-ylmethyl benzimidazole]",0.09 mg/kg,1.3,1.4,
"CCOCCn1c(CN2CCN(CCCCn3ccnc3)CC2)nc2ccccc21 [Example 3, 1-(2-Ethoxyethyl)-2-4-[4-(imidazol-1-yl)butyl]piperazin-1-ylmethyl benzimidazole]",0.13 mg/kg,0,0,
"CCOCCn1c(N2CCN(CCCCn3cc(C(=O)O)cn3)CC2)nc2ccccc21 [Example 9, 1-(2-Ethoxyethyl)-2-4-[4-(4-carboxypryazol-1-yl)butyl]piperazine-1-yl benzimidazole]",0.84 mg/kg,0,0,
"CCOCCn1c(CN2CCN(CCCCn3cccc3)CC2)nc2ccccc21 [Example 8, 1-(2-Ethoxyethyl)-2-4-[4-(pyrrol-1-yl)butyl]piperazin-1-yl-methyl benzimidazole]",0.02 mg/kg,0,0,
"CCOCCn1c(CN2CCN(CCCCn3cc(S(=O)(=O)O)cn3)CC2)nc2ccccc21 [Example 5, 1-(2-Ethoxyethyl)-2-4-[4-(4-sulfopyrazol-1-yl)butyl]piperazin-1-ylmethyl benzimidazole]",2.6 mg/kg,0.4,0.4,
"CCOCCn1c(CN2CCN(CCCCn3cncn3)CC2)nc2ccccc21 [Example 4, 1-(2-Ethoxyethyl)-2-4-[4-(1,2,4-triazol-1-yl)butyl]piperazin-1-ylmethyl benzimidazole]",0.036 mg/kg,0.5,0.4,
"CN(C)CCOC(c1ccccc1)c1ccccc1 [Difenhidramine, reference compound]",0.84 mg/kg,,,"Atax. (ataxia; score 0 to 3) ([2]; 40 mg/kg): 0.9; Pas. (passivity, sedation, prostration; score 0 to 3) ([2]; 40 mg/kg): 0; Potentiation of sleep time (in words) ([3]; 20 mg/kg): potentiates significantly the sleep time"
"CCOCCn1c(CN2CCN(CCCCn3cc(C(=O)O)cn3)CC2)nc2ccccc21 [Example 6, 1-(2-Ethoxyethyl)-2-4-[4-(4-carboxypyrazol-1-yl)butyl]piperazin-1-ylmethylbenzimidazole]",0.064 mg/kg,0,0,
"CCOCCn1c(CN2CCN(CCCCn3cccn3)CC2)nc2ccccc21 [Example 7, 1-(2-Ethoxyethyl)-2-4-[4-(pyrazol-1-yl)butyl]piperazin-1-ylmethyl benzimidazole]",0.02 mg/kg,0,0,"Atax. (ataxia; score 0 to 3) ([2]; 160 mg/kg): 0.3; Pas. (passivity, sedation, prostration; score 0 to 3) ([2]; 160 mg/kg): 0; Potentiation of sleep time ([3]; 80 mg/kg orally): 10%; Potentiation of sleep time ([3]; 160 mg/kg orally): 11%; Potentiation of sleep time ([3]; 320 mg/kg orally): 22%; Potentiation of sleep time (in words) ([3]; 320 mg/kg, maximum dose tested): does not potentiate the sleep time"
"CCOCCn1c(N2CCN(CCCCn3cc(Br)cn3)CC2)nc2ccccc21 [Example 2, 1-(2-Ethoxyethyl)-2-4-[4-(4-bromopyrazol1yl)butyl]piperazinyl benzimidazole]",2.7 mg/kg,1.3,0.7,"Atax. (ataxia; score 0 to 3) ([2]; 40 mg/kg): 0.4; Pas. (passivity, sedation, prostration; score 0 to 3) ([2]; 40 mg/kg): 0"
CCOCCn1c(CN2CCN(CCCCn3cnc(Cl)c3Cl)CC2)nc2ccccc21 [Example 10],0.66 mg/kg,,,
